pEC50: −log10 of the molar value.

From patent US20250100998A1, “PARP7 INHIBITORS” (Gilead Sciences, Inc., priority 2023, published 2025) come the findings set out here.

The test system of the test is STAT1 (phosphorylated at Tyr701) in NCI-H1373 cells. The test can be described thus: Phospho-STAT1 (Tyr701) LANCE Ultra TR-FRET detection assay. In kind it is cell-based. The following applies: Homo sapiens, NCI-H1373, 48 h, induction of pSTAT1 in NCI-H1373 cells, 48 hours incubation; normalized to 10 uM positive control and DMSO; 4-parameter fit; read-out: NH1373 pSTAT1 EC50. An outline of the steps:
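Endogenous pSTAT1 (Tyr701) induction measured in NCI-H1373 cells seeded onto compound and incubated 48 h at 37 °C. Lysates assayed by LANCE Ultra sandwich TR-FRET; 665/620 nm ratio normalized to 10 uM reference […] (positive) and DMSO (negative). EC50 from 4-parameter fit.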
On the technique in general: In TR-FRET formats the signal depends on donor and acceptor labels being close together.
For `CC(C)(O)c1cnc(-c2cc3c(F)cn(C[C@@H]4CCC[C@H](Nc5cn[nH]c(=O)c5C(F)(F)F)C4)c(=O)c3c(F)c2F)nc1` [Example 37, 4,7,8-trifluoro-6-(5-(2-hydroxypropan-2-yl)pyrimidin-2-yl)-2-(((1R,3S)-3-((6-oxo-5-(trifluoromethyl)-1,6-dihydropyridazin-4-yl)amino)cyclohexyl)methyl)isoquinolin-1(2H)-one], the negative-log EC50 (pEC50) (as a rule, the negative decadic logarithm of the EC50, by convention in mol/L) is 8.60.

With `O=c1[nH]ncc(N[C@H]2CCC[C@@H](Cn3ccc4cc(-c5ncc(OC(F)F)cn5)c(F)c(F)c4c3=O)C2)c1C(F)(F)F` [Example 21, 6-(5-(difluoromethoxy)pyrimidin-2-yl)-7,8-difluoro-2-(((1R,3S)-3-((6-oxo-5-(trifluoromethyl)-1,6-dihydropyridazin-4-yl)amino)cyclohexyl)methyl)isoquinolin-1(2H)-one], the pEC50 is 8.82.

Regarding `CS(=N)(=O)c1cnc(-c2cc3ccn(C[C@@H]4CCC[C@H](Nc5cn[nH]c(=O)c5C(F)(F)F)C4)c(=O)c3c(F)c2F)nc1` (stereo partly drawn) [Example 24, 7,8-difluoro-6-(5-(methylsulfonimidoyl)pyrimidin-2-yl)-2-(((1R,3S)-3-((6-oxo-5-(trifluoromethyl)-1,6-dihydropyridazin-4-yl)amino)cyclohexyl)methyl)isoquinolin-1(2H)-one], the negative-log EC50 (pEC50) was 7.42.

In the case of `O=c1[nH]ncc(N[C@H]2CCC[C@@H](Cn3ccc4cc(-c5ccc(C(F)F)cn5)c(F)c(F)c4c3=O)C2)c1C(F)(F)F` [Example 19, 6-(5-(difluoromethyl)pyridin-2-yl)-7,8-difluoro-2-(((1R,3S)-3-((6-oxo-5-(trifluoromethyl)-1,6-dihydropyridazin-4-yl)amino)cyclohexyl)methyl)isoquinolin-1(2H)-one], the pEC50 is 8.32.

With `Cc1nc(-c2cc3ccn(C[C@@H]4CCC[C@H](Nc5cn[nH]c(=O)c5C(F)(F)F)C4)c(=O)c3cc2F)ncc1C(F)(F)F` [Example 6, 7-fluoro-6-(4-methyl-5-(trifluoromethyl)pyrimidin-2-yl)-2-(((1R,3S)-3-((6-oxo-5-(trifluoromethyl)-1,6-dihydropyridazin-4-yl)amino)cyclohexyl)methyl)isoquinolin-1(2H)-one], the pEC50 was 8.29.

`O=c1[nH]ncc(N[C@H]2CCC[C@@H](Cn3ccc4cc(-c5ncc6c(n5)NCCO6)c(F)cc4c3=O)C2)c1C(F)(F)F` [Example 9, 6-(7,8-dihydro-6H-pyrimido[5,4-b][1,4]oxazin-2-yl)-7-fluoro-2-(((1R,3S)-3-((6-oxo-5-(trifluoromethyl)-1,6-dihydropyridazin-4-yl)amino)cyclohexyl)methyl)isoquinolin-1(2H)-one]: the pEC50 was 8.19.

For `O=c1[nH]ncc(N[C@H]2CCC[C@@H](Cn3cc(Cl)c4cc(-c5ncc(C(F)F)cn5)c(F)cc4c3=O)C2)c1C(F)(F)F` [Example 60, 4-chloro-6-(5-(difluoromethyl)pyrimidin-2-yl)-7-fluoro-2-(((1R,3S)-3-((6-oxo-5-(trifluoromethyl)-1,6-dihydropyridazin-4-yl)amino)cyclohexyl)methyl)isoquinolin-1(2H)-one], the pEC50 is 8.21.

Take `O=c1[nH]ncc(N[C@H]2CCC[C@@H](Cn3cc(F)c4cc(-c5ncc(OCCO)cn5)c(F)c(F)c4c3=O)C2)c1C(F)(F)F` [Example 36, 4,7,8-trifluoro-6-(5-(2-hydroxyethoxy)pyrimidin-2-yl)-2-(((1R,3S)-3-((6-oxo-5-(trifluoromethyl)-1,6-dihydropyridazin-4-yl)amino)cyclohexyl)methyl)isoquinolin-1(2H)-one]: the negative logarithm of the EC50 (pEC50) is 8.38.

`CC(F)(F)c1cnc(-c2cc3c(F)cn(C[C@@H]4CCC[C@H](Nc5cn[nH]c(=O)c5C(F)(F)F)C4)c(=O)c3cc2F)nc1` [Example 42]: the negative logarithm of the EC50 (pEC50) was 8.61.

Take `O=c1[nH]ncc(O[C@H]2CCC[C@@H](Cn3cc(F)c4cc(-c5ncc(OC(F)(F)F)cn5)c(F)c(F)c4c3=O)C2)c1C(F)(F)F` [Example 49, 4,7,8-trifluoro-2-(((1R,3S)-3-((6-oxo-5-(trifluoromethyl)-1,6-dihydropyridazin-4-yl)oxy)cyclohexyl)methyl)-6-(5-(trifluoromethoxy)pyrimidin-2-yl)isoquinolin-1(2H)-one]: the pEC50 is 8.31.

For `O=c1[nH]ncc(N[C@H]2CCC[C@@H](Cn3cc(Cl)c4cc(-c5nc6ccccn6n5)c(F)cc4c3=O)C2)c1C(F)(F)F` [Example 59, 6-([1,2,4]triazolo[1,5-a]pyridin-2-yl)-4-chloro-7-fluoro-2-(((1R,3S)-3-((6-oxo-5-(trifluoromethyl)-1,6-dihydropyridazin-4-yl)amino)cyclohexyl)methyl)isoquinolin-1(2H)-one], the negative logarithm of the EC50 (pEC50) is 8.69.

Take `COc1cnc(-c2cc3c(cc2F)C(=O)N(C[C@@H]2CCC[C@H](Nc4cn[nH]c(=O)c4C(F)(F)F)C2)CC3)nc1` [Example 70, 7-fluoro-6-(5-methoxypyrimidin-2-yl)-2-(((1R,3S)-3-((6-oxo-5-(trifluoromethyl)-1,6-dihydropyridazin-4-yl)amino)cyclohexyl)methyl)-3,4-dihydroisoquinolin-1(2H)-one]: the negative logarithm of the EC50 (pEC50) was 7.95.

Turning to `CC(F)(F)c1cnc(-c2cc3ccn(C[C@@H]4CCC[C@H](Nc5cn[nH]c(=O)c5C(F)(F)F)C4)c(=O)c3cc2F)nc1` [Example 4, 6-(5-(1,1-difluoroethyl)pyrimidin-2-yl)-7-fluoro-2-(((1R,3S)-3-((6-oxo-5-(trifluoromethyl)-1,6-dihydropyridazin-4-yl)amino)cyclohexyl)methyl)isoquinolin-1(2H)-one], the negative logarithm of the EC50 (pEC50) is 8.65.

For `[2H]C([2H])([2H])Oc1cnc(-c2cc3c(F)cn(C[C@@H]4CCC[C@H](Oc5cn[nH]c(=O)c5C(F)(F)F)C4)c(=O)c3c(F)c2F)nc1` [Example 51, 4,7,8-trifluoro-6-(5-(methoxy-d3)pyrimidin-2-yl)-2-(((1R,3S)-3-((6-oxo-5-(trifluoromethyl)-1,6-dihydropyridazin-4-yl)oxy)cyclohexyl)methyl)isoquinolin-1(2H)-one], the negative-log EC50 (pEC50) was 8.91.

Consider `O=c1[nH]ncc(N[C@H]2CCC[C@@H](Cn3cc(F)c4cc(-c5ncc(C(F)F)cn5)c(F)c(F)c4c3=O)C2)c1C(F)(F)F` [Example 34, 6-(5-(difluoromethyl)pyrimidin-2-yl)-4,7,8-trifluoro-2-(((1R,3S)-3-((6-oxo-5-(trifluoromethyl)-1,6-dihydropyridazin-4-yl)amino)cyclohexyl)methyl)isoquinolin-1(2H)-one], for which the pEC50 is 9.02.

`O=C1c2cc(F)c(-c3ncc(C(F)F)cn3)cc2CCN1C[C@@H]1CCC[C@H](Nc2cn[nH]c(=O)c2C(F)(F)F)C1` [Example 72, 6-(5-(difluoromethyl)pyrimidin-2-yl)-7-fluoro-2-(((1R,3S)-3-((6-oxo-5-(trifluoromethyl)-1,6-dihydropyridazin-4-yl)amino)cyclohexyl)methyl)-3,4-dihydroisoquinolin-1(2H)-one]: the pEC50 was 8.43.

`O=c1[nH]ncc(N[C@H]2CCC[C@@H](Cn3cc(F)c4cc(-c5ncc(OC(F)(F)F)cn5)c(F)cc4c3=O)C2)c1C(F)(F)F` [Example 23, 4,7-difluoro-2-(((1R,3S)-3-((6-oxo-5-(trifluoromethyl)-1,6-dihydropyridazin-4-yl)amino)cyclohexyl)methyl)-6-(5-(trifluoromethoxy)pyrimidin-2-yl)isoquinolin-1(2H)-one]: the pEC50 is 8.04.

On to `CC(C)(O)c1cnc(-c2cc3ccn(C[C@@H]4CCC[C@H](Nc5cn[nH]c(=O)c5C(F)(F)F)C4)c(=O)c3c(F)c2F)nc1` [Example 18, 7,8-difluoro-6-(5-(2-hydroxypropan-2-yl)pyrimidin-2-yl)-2-(((1R,3S)-3-((6-oxo-5-(trifluoromethyl)-1,6-dihydropyridazin-4-yl)amino)cyclohexyl)methyl)isoquinolin-1(2H)-one], for which the negative logarithm of the EC50 (pEC50) is 8.49.

Turning to `O=c1[nH]ncc(N[C@H]2CCC[C@@H](Cn3cc(F)c4cc(-c5ncc(C(F)(F)F)cn5)c(F)c(F)c4c3=O)C2)c1C(F)(F)F` [Example 33, 4,7,8-trifluoro-2-(((1R,3S)-3-((6-oxo-5-(trifluoromethyl)-1,6-dihydropyridazin-4-yl)amino)cyclohexyl)methyl)-6-(5-(trifluoromethyl)pyrimidin-2-yl)isoquinolin-1(2H)-one], the pEC50 was 8.82.
